Assay results taken from patent US8003847B2, “Non-human mutant mammals deficient in Sigma receptors and their applications” (Laboratorios Del Dr. Esteve, S.A., priority 2002, dated 2011).

Tests used:
type-1 Sigma receptors = type-1 Sigma receptors (Homo sapiens, UniProt Q99720); settings: type-1 Sigma receptor, result in words; cited from earlier work
Sigma-1 receptor = Sigma-1 receptor (Mus musculus, UniProt O55242); settings: in vivo
Method: Fifthly, the function of the Sigma-1 receptor was evaluated according to known behavioral paradigms and protocols.

mouse Sigma-1 receptor = assay: specific binding test to the [3H]-pentazocine ligand, brain membrane fraction; settings: brain membranes of homozygous mutant (-/-) mice; 37° C., 130-170 minutes
Method: Fourthly, the activity (function) of the mouse Sigma-1 receptor was evaluated by a specific binding test to the [^3H]-pentazocine ligand. Briefly, the brains of mutant (−/−), heterozygous (+/−) and wild (+/+) mice were homogenised and the homogenisations ere centrifuged several times at different speeds to obtain the membrane fraction. Then samples of the membrane fraction obtained were incubated with the [^3H]-pentazocine radioligand in optimal binding conditions for this receptor (37° C., for 130-170 minutes), filtrating the samples, washing them and reading the radioactivity count present in the filtrate (see DeHaven-Hudkins D. L., Fleissner L. C., Ford-Rice, F. Y. (1992) Characterization of the binding of [3H]-Pentazocine to sigma recognition sites in guinea pigs brain. European Journal of Pharmacology 227:371-378, hereinafter DeHaven-Hudkins).

type-2 Sigma receptors = type-2 Sigma receptors (Homo sapiens, UniProt Q5BJF2); settings: type-2 Sigma receptor, result in words; cited from earlier work
Chain of type-2 Sigma receptors (Q5BJF2 whole entry): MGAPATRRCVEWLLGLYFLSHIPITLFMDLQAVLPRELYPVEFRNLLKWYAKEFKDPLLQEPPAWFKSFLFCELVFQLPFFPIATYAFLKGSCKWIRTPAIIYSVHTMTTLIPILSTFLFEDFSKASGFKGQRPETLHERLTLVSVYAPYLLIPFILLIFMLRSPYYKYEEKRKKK

Chain of type-1 Sigma receptors (Q99720 whole entry): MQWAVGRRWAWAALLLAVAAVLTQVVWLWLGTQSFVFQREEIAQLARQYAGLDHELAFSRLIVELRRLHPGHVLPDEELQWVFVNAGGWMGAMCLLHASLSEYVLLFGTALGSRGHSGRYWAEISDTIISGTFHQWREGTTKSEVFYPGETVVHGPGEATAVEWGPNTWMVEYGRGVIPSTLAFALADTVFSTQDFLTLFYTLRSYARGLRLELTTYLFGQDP
Chain of Sigma-1 receptor (O55242 whole entry): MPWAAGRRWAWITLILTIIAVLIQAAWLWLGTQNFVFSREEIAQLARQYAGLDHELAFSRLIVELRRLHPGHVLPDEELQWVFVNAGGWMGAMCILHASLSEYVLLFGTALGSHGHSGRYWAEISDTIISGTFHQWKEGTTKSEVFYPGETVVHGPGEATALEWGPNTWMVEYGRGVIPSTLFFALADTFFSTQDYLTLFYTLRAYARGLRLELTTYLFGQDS

Row | Compound | affinity (type-1 Sigma receptors) | affinity (type-2 Sigma receptors) | other results
1 | C[C@@H]1CN(CCCn2c3ccccc3c3ccccc32)C[C@H](C)N1 [rimcazole] | high affinity |  | 
2 | N-allylnormetazocine [SKF-10047] | high affinity |  | hyperactivity (hypermotility) response (Sigma-1 receptor): Statistically significant differences have only been observed with wild mice
3 | [3H]c1cc2c(c([3H])c1O)[C@@]1(C)CCN(CC=C(C)C)[C@@H](C2)[C@H]1C [[^3H]-pentazocine] |  |  | specific binding of radioligand (activity/function of receptor) (mouse Sigma-1 receptor): lack of activity (function)
4 | (+)-SKF10047 |  | low affinity | 
5 | O=C(CCCN1CCC(O)(c2ccc(Cl)cc2)CC1)c1ccc(F)cc1 [haloperidol] |  | high to moderate affinity | 
6 | CC(C)=CCN1CCC2(C)c3cc(O)ccc3CC1C2C (single isomer, unassigned; (+)) [(+)-pentazocine] | high affinity | low affinity | 
